Source: US12215140B2, “Method of stabilizing protein contained in specimen and solution for stabilizing protein contained in specimen” (EIKEN KAGAKU KABUSHIKI KAISHA, priority 2018, dated 2025)

Tested on: hemoglobin-haptoglobin complex
Assay: Stability of hemoglobin (as hemoglobin-haptoglobin complex) in samples preserved at 37° C. in preservation solution containing 1 unit/L haptoglobin, Hb measured by latex agglutination method (Examples 1 to 7)
Design: species or system human
Settings: arylboronic acid 15 mmol/L
Description: Preservation solutions were prepared with the addition of 40 mmol/L HEPES (pH 6.8), 0.1% BSA, 0.1% NaN3, 1 unit/L haptoglobin, and 0 to 100 mmol/L phenylboronic acid. Samples obtained by adding hemoglobin-added fecal specimens to the preservation solutions so that the fecal concentration would be 0.5% were preserved at 37° C. for 0, 7, 14, and 21 days. The fecal specimens were added with hemoglobin having an amount such that the hemoglobin concentration in the samples would be about 300 μg/L. Instead of the fecal specimens to which hemoglobin was added, samples containing no fecal specimens, in which hemoglobin was added to the preservation solutions so that the hemoglobin concentration in the samples would be 300 μg/L, were similarly preserved. The hemoglobin (Hb) concentrations (μg/L) in the preserved samples were measured by the latex agglutination method.
The concentrations of hemoglobin were measured using “OC-Hemodia (registered trademark) Auto III ‘EIKEN’” (available from EIKEN CHEMICAL CO., LTD.) as a measurement reagent and “OC-sensor DIANA” (available from EIKEN CHEMICAL CO., LTD.) as a measurement device. The above measurement reagent contains latex particles immobilizing an anti-human hemoglobin rabbit polyclonal antibody.
From the measured concentrations of hemoglobin, the recovery ratios (%) were calculated with respect to the hemoglobin concentrations immediately after the fecal specimens were added to the preservation solutions (i.e., concentrations 0 days after the fecal specimens were added).
(§1) For comparative examples, preservation solutions to which no arylboronic acid was added were prepared, and testing was conducted in the same manner.
(§2) The concentration of phenylboronic acid in the preservation solutions of Example 1 was fixed to 15 mmol/L, preservation solutions to which a sugar (sorbitol, sucrose, trehalose, glucose, fructose, or mannitol) was further added at 50 mmol/L or 100 mmol/L or preservation solutions to which no sugar was added were prepared, and testing was conducted in the same manner as in Example 1. For comparative examples, preservation solutions to which the phenylboronic acid and sugar were not added were prepared, and testing was conducted in the same manner.
Preservation solutions in which sorbitol, sucrose, trehalose, glucose, fructose, or mannitol was added at 100 mmol/L to the preservation solutions of Example 1 containing no phenylboronic acid were prepared, and testing was conducted in the same manner as in Example 1. For comparison, the same testing was conducted without adding these sugars.
as §2, with “sorbitol” for “a sugar (sorbitol, sucrose, trehalose, glucose, fructose, or mannitol)”, “was” for “was further”, “10 to 500” for “50”, “sucrose was added at 10 to 250” for “100”
as §1

[1] = Feces 1, sugar (if added) 100 mmol/L, 0 days at 37° C.
[2] = Feces 1, sugar (if added) 100 mmol/L, 7 days at 37° C.
[3] = Feces 1, sugar (if added) 100 mmol/L, 14 days at 37° C.
[4] = Feces 2, sugar (if added) 100 mmol/L, 0 days at 37° C.
[5] = Feces 2, sugar (if added) 100 mmol/L, 7 days at 37° C.
[6] = Feces 2, sugar (if added) 100 mmol/L, 14 days at 37° C.
[7] = Feces 3, sugar (if added) 100 mmol/L, 0 days at 37° C.
[8] = Feces 3, sugar (if added) 100 mmol/L, 7 days at 37° C.
[9] = Feces 3, sugar (if added) 100 mmol/L, 14 days at 37° C.
[10] = No feces, sugar (if added) 100 mmol/L, 0 days at 37° C.
[11] = No feces, sugar (if added) 100 mmol/L, 7 days at 37° C.
[12] = No feces, sugar (if added) 100 mmol/L, 14 days at 37° C.

`O=C(O)c1cccc(B(O)O)c1` [3C-PBA, 3-carboxyphenylboronic acid] was tested, and the Hb concentration [1] was 309 µg/L, the “Recovery ratio with respect to Hb after 0 days” value (“Recovery ratio” for short) [1] was 100% and the Hb concentration [2] was 249 µg/L. For the same compound, the “Recovery ratio” value [2] was 81%, the Hb concentration [3] was 239 µg/L and the “Recovery ratio” value [3] was 77%. The Hb concentration (Feces 1, 37° C., 0 days) was 309 µg/L, the “Recovery ratio” value (Feces 1, 37° C., 0 days) was 100% and the Hb concentration (Feces 1, 37° C., 7 days) was 249 µg/L. For the same compound, the “Recovery ratio” value (Feces 1, 37° C., 7 days) was 81%, the Hb concentration (Feces 1, 37° C., 14 days) was 239 µg/L and the “Recovery ratio” value (Feces 1, 37° C., 14 days) was 77%. The Hb concentration [4] was 309 µg/L, the “Recovery ratio” value [4] was 100% and the Hb concentration [5] was 264 µg/L. The “Recovery ratio” value [5] was 85%, the Hb concentration [6] was 240 µg/L and the “Recovery ratio” value [6] was 78%. For the same compound, the Hb concentration (Feces 2, 37° C., 0 days) was 309 µg/L, the “Recovery ratio” value (Feces 2, 37° C., 0 days) was 100% and the Hb concentration (Feces 2, 37° C., 7 days) was 264 µg/L. For the same compound, the “Recovery ratio” value (Feces 2, 37° C., 7 days) was 85%, the Hb concentration (Feces 2, 37° C., 14 days) was 240 µg/L and the “Recovery ratio” value (Feces 2, 37° C., 14 days) was 78%. For the same compound, the Hb concentration [7] was 300 µg/L, the “Recovery ratio” value [7] was 100% and the Hb concentration [8] was 213 µg/L. For the same compound, the “Recovery ratio” value [8] was 71%, the Hb concentration [9] was 200 µg/L and the “Recovery ratio” value [9] was 67%. For the same compound, the Hb concentration (Feces 3, 37° C., 0 days) was 300 µg/L, the “Recovery ratio” value (Feces 3, 37° C., 0 days) was 100% and the Hb concentration (Feces 3, 37° C., 7 days) was 213 µg/L. The “Recovery ratio” value (Feces 3, 37° C., 7 days) was 71%, the Hb concentration (Feces 3, 37° C., 14 days) was 200 µg/L and the “Recovery ratio” value (Feces 3, 37° C., 14 days) was 67%. For the same compound, the Hb concentration [10] was 293 µg/L, the “Recovery ratio” value [10] was 100% and the Hb concentration [11] was 281 µg/L. For the same compound, the “Recovery ratio” value [11] was 96%, the Hb concentration [12] was 276 µg/L and the “Recovery ratio” value [12] was 94%. The Hb concentration (No feces, 37° C., 0 days) was 293 µg/L, the “Recovery ratio” value (No feces, 37° C., 0 days) was 100% and the Hb concentration (No feces, 37° C., 7 days) was 281 µg/L. The “Recovery ratio” value (No feces, 37° C., 7 days) was 96%, the Hb concentration (No feces, 37° C., 14 days) was 276 µg/L and the “Recovery ratio” value (No feces, 37° C., 14 days) was 94%.
